Data from PubChem BioAssay (NCI).
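Results reflect a 48-hour exposure of cells in 96-well plates to compound at five concentrations. GI50: concentration for 50% inhibition of growth. TGI marks complete inhibition of growth.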 Where a SMILES comes first, the peptide text is derived from it. The star is where a group is joined. Cbz = O=C(OCc1ccccc1)*

Assays:
Assay in all cases: growth of human tumour cells (NCI), 48 h
[1] = system: A498 renal
[2] = system: ACHN renal
[3] = system: DLD-1 colon
[4] = system: DMS 273 small cell lung
[5] = system: HOP-62 NSCLC
[6] = system: HOP-92 NSCLC
[7] = system: HT29 colon
[8] = system: KM20L2 colon
[9] = system: M19-MEL melanoma
[10] = system: NCI-H23 lung
[11] = system: SK-MEL-2 melanoma
[12] = system: UACC-62 melanoma

Structure (SMILES)	TGI [1] [µM]	TGI [2] [µM]	TGI [3] [µM]	TGI [4] [µM]	TGI [5] [µM]	TGI [6] [µM]	TGI [7] [µM]	TGI [8] [µM]	TGI [9] [µM]	TGI [10] [µM]	TGI [11] [µM]	TGI [12] [µM]	GI50 [1] [pM]	GI50 [5] [nM]	GI50 [6] [µM]	GI50 [7] [µM]	GI50 [10] [pM]	GI50 [11] [nM]	GI50 [12] [pM]
Cn1c(=O)n(C2(C)C[Se]C2)c2ccccc21	> 100	> 100	> 100	> 100	> 100	> 100	> 100	> 100	> 100	> 100	> 100	> 100	–	–	–	–	–	–	–
N#Cc1c2ccccc2cn1-c1ccc(F)cc1	–	> 100	> 100	–	> 100	68.5	> 100	> 100	> 100	56.2	–	> 100	–	–	–	–	–	–	–
O=C(O)CCC(NC(=O)c1ccc(Nc2nc3cc(C(F)(F)F)ccc3nc2-c2ccccc2)cc1)C(=O)O (stereo unspecified)	> 100	–	> 100	46.6	> 100	> 100	> 69.8	53.3	> 100	> 100	> 100	> 100	–	–	–	–	–	–	–
CC1(C)N=C(N)N=C(N)N1c1ccc(CCc2ccccc2)cc1	> 100	–	> 100	17.5	–	79.7	> 100	> 100	38.7	> 100	> 100	> 100	–	–	–	–	–	–	–
Cc1cc2oc(=N)c(C#N)c(C)c2cc1C	> 100	> 100	–	–	> 100	> 100	> 100	–	–	> 100	> 100	> 100	–	–	–	–	–	–	–
O=C1CCCC1CN1CCCC1 (stereo unspecified)	45.1	15	–	–	> 100	12.6	> 59.7	–	–	31.3	18.5	32.6	–	–	–	–	–	–	–
Cc1nn(-c2ccccc2)c2c1C(c1ccc(Cl)cc1)NC(=S)N2 (stereo unspecified)	67.1	38.4	–	–	80.1	35.2	> 100	–	–	44.5	38.6	60.5	–	–	–	–	–	–	–
N#Cc1c(N)nc2n[nH]c(N)c2c1-c1ccc(Cl)cc1	3.14	9.69	–	–	71.5	6.14	> 58.6	–	–	29.8	6.57	4.23	–	–	–	–	–	–	–
NCc1ccccc1-c1c2nc(c(-c3ccccc3CN)c3ccc([nH]3)c(-c3ccccc3CN)c3nc(c(-c4ccccc4CN)c4ccc1[nH]4)C=C3)C=C2	–	35.3	–	46.4	60.4	22.2	> 100	63	50.7	58.4	73.9	54.1	–	–	–	–	–	–	–
CCCCCCc1cc2cc(C(=O)Nc3ccccc3)c(=N)oc2cc1O	> 100	> 100	–	–	11.8	> 100	> 32.1	–	–	10.6	14.7	40.1	–	–	–	–	–	–	–
CN(C)CCCC12CCCCC1=Nc1ccccc12 (stereo unspecified)	> 100	> 100	–	–	> 100	> 100	> 100	–	–	> 100	> 100	> 100	–	–	–	–	–	–	–
CC1(CCOCc2ccccc2)NC(=O)NC1=O (stereo unspecified)	> 100	> 100	–	–	> 100	> 100	> 100	–	–	> 100	> 100	> 100	–	–	–	–	–	–	–
COC(=O)/C=C(\C)CC(O)/C=C(\C)CCC=C(C)C (stereo unspecified)	> 100	> 100	–	–	> 100	> 100	59.2	–	–	74.9	73.7	> 100	–	–	–	–	–	–	–
Cn1c(=O)c2c(nc(Cc3ccccc3)n2CC(=O)O)n(C)c1=O	> 100	> 100	–	–	> 100	> 100	> 100	–	–	> 100	> 100	> 100	–	–	–	–	–	–	–
CCC(/C=C/C1OC(=O)C=CC1C)=C\C(C)C/C=C/C(C)=C/C(C)C(=O)C(C)C(O)C(C)C/C(C)=C/C(=O)O (stereo unspecified)	–	–	35.8	27.1	–	–	13	8.33	6.49	3.87	–	–	1.31	0.0236	5.32	4.95	6.52	0.0281	2.23
CCOC(=O)CN1C(=O)c2ccc(NC(=O)C(=O)O)cc2S1(=O)=O	> 100	> 100	–	–	> 100	> 100	> 100	–	–	> 100	> 100	> 100	–	–	–	–	–	–	–
CC(OC(C)(C)C)[C@H](NC(=O)OCC(Cl)(Cl)Cl)C(=O)O (stereo partly specified)	> 100	> 100	> 100	> 100	> 100	> 100	> 100	> 100	> 100	> 100	> 100	> 100	–	–	–	–	–	–	–
CN1CCN(C(=S)N2CCN(C)CC2)CC1	> 100	> 100	–	–	> 100	> 100	5.86	–	–	> 100	> 100	> 100	–	–	–	–	–	–	–
O=C(O)CCC(NC(=O)OCc1ccccc1)C(=O)NC(Cc1cnc[nH]1)C(=O)O (stereo not drawn) (Cbz-Glu-His-OH; configuration not given here)	> 100	> 100	–	–	> 100	> 100	> 100	–	–	> 100	> 100	> 100	–	–	–	–	–	–	–
CCCCNC(=S)Nc1nc(C(=O)NNC(=S)Nc2ccccc2)cs1	68	> 100	–	–	> 100	38.6	> 100	–	–	> 100	> 100	> 100	–	–	–	–	–	–	–
CC1OC(OC2C(O)COC(OC3C(C)OC(OC4C(OC(=O)[C@]56CCC(C)(C)C[C@@H]5C5=CCC7[C@@]8(C)C[C@H](O)[C@H](OC9OC(CO)C(O)C(O)C9O)[C@@](C)(CO)[C@@H]8CC[C@@]7(C)[C@]5(C)CC6)OCC(O)C4O)C(O)C3OC3OCC(O)(CO)C3O)C2O)C(O)C(O)C1O (stereo partly specified)	13.6	34	–	–	34.5	50.3	37.4	–	–	27.1	30.8	31.6	–	–	–	–	–	–	–
OC1C#CCSCC#C/C=C\1 (stereo unspecified)	> 100	> 100	–	–	> 100	> 100	> 100	–	–	> 100	> 100	> 100	–	–	–	–	–	–	–
Oc1[nH]c2ccccc2c1N=NC(=S)Nc1cccc(Cl)c1	24.7	28.8	–	–	42.5	70.3	28.4	–	–	52.3	89.6	29	–	–	–	–	–	–	–
Cn1ccc(C(=O)NCCN(CCNC(=O)c2ccn(C)c(=O)c2O)CCNC(=O)c2cccc(=O)n2O)c(O)c1=O	> 100	> 100	–	–	> 100	> 100	> 100	–	–	> 100	> 100	> 100	–	–	–	–	–	–	–
O=[N+]([O-])c1ccc2c(c1)C1=C(CO2)Cc2ccccc2O1	> 100	29.9	–	–	> 100	81.5	88	–	–	59.2	> 100	50.7	–	–	–	–	–	–	–
